# Experiments:
# [1] = tested on: N. gonorrhoeae WHO X; assay: Liquid broth MIC in Fastidious broth; conditions: Neisseria gonorrhoeae, read-out: Minimum Inhibitory Concentration (MIC), N. gonorrhoeae WHO X
# [2] = tested on: N. gonorrhoeae ATCC 49226; assay: Liquid broth MIC in Fastidious broth; conditions: Neisseria gonorrhoeae, ATCC49226, read-out: Minimum Inhibitory Concentration (MIC), N. gonorrhoeae ATCC 49226
# [3] = target: T1, PBP2 from Neisseria gonorrhoeae (FA19) (Neisseria gonorrhoeae, UniProt P08149); assay: Bocillin-FL fluorescence polarization competition binding, N. gonorrhoeae PBP2; conditions: fluorescence polarization competition binding assay using Bocillin-FL, read-out: N. gonorrhoeae PBP2 Potency
# T1 construct: made in house
# T1 sequence (P08149 whole entry): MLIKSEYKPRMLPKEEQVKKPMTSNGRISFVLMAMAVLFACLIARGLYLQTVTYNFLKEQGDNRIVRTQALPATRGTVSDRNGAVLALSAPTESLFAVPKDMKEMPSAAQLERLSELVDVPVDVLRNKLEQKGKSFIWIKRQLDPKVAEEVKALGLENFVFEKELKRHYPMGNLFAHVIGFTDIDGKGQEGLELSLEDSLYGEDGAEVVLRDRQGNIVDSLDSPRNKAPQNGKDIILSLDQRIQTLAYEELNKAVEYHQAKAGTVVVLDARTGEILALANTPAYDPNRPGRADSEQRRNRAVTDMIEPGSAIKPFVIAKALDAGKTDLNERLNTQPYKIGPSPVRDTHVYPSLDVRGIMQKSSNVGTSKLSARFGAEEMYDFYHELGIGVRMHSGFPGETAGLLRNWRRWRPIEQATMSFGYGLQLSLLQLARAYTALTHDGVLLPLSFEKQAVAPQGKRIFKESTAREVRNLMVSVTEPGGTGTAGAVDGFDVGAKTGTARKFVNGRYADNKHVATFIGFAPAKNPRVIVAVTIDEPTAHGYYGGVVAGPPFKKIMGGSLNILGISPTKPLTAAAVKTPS
# How it was run: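 Fluorescence polarization competition with 0.1 μM Bocillin-FL (fluorescent penicillin V) against 0.25 μM N. gonorrhoeae FA19 PBP2 in 50 mM Hepes pH 8.0, 300 mM NaCl, 10% glycerol. Boronic acid inhibitors were preincubated with PBP, then Bocillin-FL was added and FP read (490/520 nm) up to 60 min. EC50 is the concentration halving PBP-bound Bocillin-FL.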
# [4] = tested on: N. gonorrhoeae WHO Q; assay: Liquid broth MIC in Fastidious broth; conditions: Neisseria gonorrhoeae, read-out: Minimum Inhibitory Concentration (MIC), N. gonorrhoeae WHO Q
# [5] = tested on: N. gonorrhoeae FA1090; assay: Liquid broth MIC in Fastidious broth; conditions: Neisseria gonorrhoeae, FA1090, read-out: Minimum Inhibitory Concentration (MIC), N. gonorrhoeae FA 1090
# [6] = tested on: N. gonorrhoeae WHO Z; assay: Liquid broth MIC in Fastidious broth; conditions: Neisseria gonorrhoeae, read-out: Minimum Inhibitory Concentration (MIC), N. gonorrhoeae WHO Z
# [7] = tested on: E. coli AG100A; assay: Broth microdilution MIC in CAMHB; type: cell-based; conditions: Escherichia coli, read-out: MIC E. coli AG100A
# [8] = tested on: N. gonorrhoeae CDC-0197; assay: Liquid broth MIC in Fastidious broth; conditions: Neisseria gonorrhoeae, CDC0197, read-out: Minimum Inhibitory Concentration (MIC), N. gonorrhoeae CDC-0197
# [9] = tested on: P. aeruginosa (ΔmexAB-oprM); assay: Broth microdilution MIC in CAMHB; type: cell-based; conditions: Pseudomonas aeruginosa; read-out: MIC P. aeruginosa ΔmexAB-oprM
# [10] = tested on: K. pneumoniae UMM; assay: microbe, parasite or virus in culture; type: cell-based; conditions: Klebsiella pneumoniae, read-out: MIC K. pneumoniae UMM
# [11] = tested on: P. aeruginosa ATCC 27853; assay: microbe, parasite or virus in culture; type: cell-based; conditions: Pseudomonas aeruginosa, ATCC27853, read-out: MIC P. aeruginosa ATCC 27853
# [12] = tested on: A. baumannii ATCC 19606; assay: microbe, parasite or virus in culture; type: cell-based; conditions: Acinetobacter baumannii, ATCC19606, read-out: MIC, A. baumannii ATCC 19606
# [13] = tested on: E. coli AG100; assay: microbe, parasite or virus in culture; type: cell-based; conditions: Escherichia coli, AG100, read-out: MIC E. coli AG100
# [14] = tested on: N. gonorrhoeae MS11; assay: Liquid broth MIC in Fastidious broth; conditions: Neisseria gonorrhoeae, MS11, read-out: Minimum Inhibitory Concentration (MIC), N. gonorrhoeae MS11
# [15] = tested on: E. coli 901C; assay: microbe, parasite or virus in culture; type: cell-based; conditions: Escherichia coli, read-out: MIC E. coli 901C
# [16] = tested on: N. gonorrhoeae WHO K; assay: Liquid broth MIC in Fastidious broth; conditions: Neisseria gonorrhoeae, read-out: Minimum Inhibitory Concentration (MIC), N. gonorrhoeae WHO K
# [17] = tested on: N. gonorrhoeae WHO L; assay: Liquid broth MIC in Fastidious broth; conditions: Neisseria gonorrhoeae, read-out: Minimum Inhibitory Concentration (MIC), N. gonorrhoeae WHO L
# [18] = tested on: N. gonorrhoeae WHO M; assay: Liquid broth MIC in Fastidious broth; conditions: Neisseria gonorrhoeae, read-out: Minimum Inhibitory Concentration (MIC), N. gonorrhoeae WHO M
Compound,MIC [1] [µg/mL],MIC [2] [µg/mL],EC50 [3] [µM],MIC [4] [µg/mL],MIC [5] [µg/mL],MIC [6] [µg/mL],MIC [7] [µg/mL],MIC [8] [µg/mL],MIC [9] [µg/mL],MIC [10] [µg/mL],MIC [11] [µg/mL],MIC [12] [µg/mL],MIC [13] [µg/mL],MIC [14] [µg/mL],MIC [15] [µg/mL],MIC [16] [µg/mL],MIC [17] [µg/mL],MIC [18] [µg/mL]
"CCN1CCN(C(=O)NC(C(=O)N[C@H]2Cc3cccc(C(=O)O)c3OB2O)c2ccc(P(=O)(O)O)cc2F)C(=O)C1=O (stereo partly drawn) [Example 1, (3R)-3-(2-(4-ethyl-2,3-dioxopiperazine-1-carboxamido)-2-(2-fluoro-4-phosphonophenyl)acetamido)-2-hydroxy-3,4-dihydro-2H-benzo[e][1,2]oxaborinine-8-carboxylic acid]",1 to 2,< 1,< 10,< 1,< 1,< 1,8 to 16,< 1,32 to 64,32 to 64,> 128,32 to 64,32 to 64,< 1,< 1,< 1,1 to 2,< 1
"CS(=O)(=O)N1CCN(C(=O)N[C@@H](C(=O)N[C@H]2Cc3cccc(C(=O)O)c3OB2O)c2ccc(P(=O)(O)O)cc2)C1=O (single isomer, unassigned) [Example 6]",< 1,< 1,< 10,< 1,< 1,< 1,8 to 16,< 1,8 to 16,32 to 64,> 128,8 to 16,8 to 16,< 1,< 1,< 1,< 1,< 1
"CCN1CCN(C(=O)NC(C(=O)N[C@H]2Cc3cccc(C(=O)O)c3OB2O)c2cc(P(=O)(O)O)ccc2F)C(=O)C1=O (stereo partly drawn) [Example 2, (3R)-3-(2-(4-ethyl-2,3-dioxopiperazine-1-carboxamido)-2-(2-fluoro-5-phosphonophenyl)acetamido)-2-hydroxy-3,4-dihydro-2H-benzo[e][1,2]oxaborinine-8-carboxylic acid]",16 to 32,4 to 8,< 10,4 to 8,< 1,4 to 8,32 to 64,4 to 8,8 to 16,32 to 64,> 128,> 128,32 to 64,4 to 8,< 1,16 to 32,> 64,4 to 8
"CS(=O)(=O)N1CCN(C(=O)N[C@H](C(=O)N[C@H]2Cc3cccc(C(=O)O)c3OB2O)c2ccc(P(=O)(O)O)cc2)C1=O (single isomer, unassigned) [Example 5]",4 to 8,< 1,< 10,< 1,< 1,< 1,32 to 64,< 1,32 to 64,> 128,> 128,> 128,32 to 64,< 1,< 1,1 to 2,4 to 8,< 1

# — patent publication US20240270762A1, “PENICILLIN-BINDING PROTEIN INHIBITORS” (priority 2021, published 2024)
